These results are taken from patent publication US11072585B2 (PharmAkea, Inc., priority 2015, dated 2021).

One test deals with human LOXL2 (Homo sapiens (Human), UniProt Q9Y4K0). Nature of the test: Human LOXL2 amine oxidase activity assay (Amplex Red). It counts as biochemical. To be noted: concentrated conditioned media from CHO cells stably expressing human LOXL2; 2 h at 37° C. with compound; DAP substrate. A digest of the protocol:
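Concentrated conditioned medium from CHO cells stably expressing human LOXL2 was preincubated with compound for 2 h at 37 °C in 50 mM borate, pH 8. 1,5-diaminopentane substrate and Amplex Red/HRP were then added. Fluorescence (544/590) was read kinetically every 2 min for 1 h, with activity taken from the linear slope.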

In test [1] the test system is bleomycin-induced lung fibrosis in C57Bl/6 male mice. Nature of the test: Mouse oropharyngeal bleomycin model of lung fibrosis. To be noted: for efficacy in bleomycin lung fibrosis model, prophylactic dosing: dosed prophylactically at 60 mg/kg p.o.; for efficacy in bleomycin lung fibrosis model, therapeutic dosing: dosed therapeutically at 60 mg/kg p.o. Type of test: in vivo. How it is done:
Example B-3: Mouse Oropharyngeal Bleomycin Model of Lung Fibrosis
Lung fibrosis is induced in C57Bl/6 male mice by administering bleomycin (0.1-4 U/kg) via oropharyngeal instillation. Mice are either pretreated with vehicle or test compound (1 day to 1 hour) orally, intraperitoneally, intravenously or subcutaneously before bleomycin installation (prophylactic dosing) or 7-14 days post bleomycin instillation (therapeutic dosing). The route and frequency of dosing are based on previously determined pharmacokinetic properties for the LOXL2 inhibitor in mouse. After bleomycin instillation animals are monitored daily for weight loss and clinical signs for 14-28 days prior to sacrifice. Animals are euthanized at study termination and weighed and blood (for isolation of plasma) and bronchoalveolar lavage are collected and frozen for subsequent analyses. Lungs are removed, weighed, then either inflated and fixed by instillation of 10% formalin and prepared for histological examination or homogenized in 1 ml PBS for collagen determination using a hydroxyproline assay. For histological examination, lung slices are stained with Masson's trichrome or Picro-Sirius red to measure cross-linked collagen as an indicator of fibrosis and an Ashcroft score of lung fibrotic and inflammatory damage determined. In addition, immunohistochemistry of fibrotic proteins such as a-smooth muscle actin can be recorded. For lung hydroxyproline content, 0.5 ml of the lung homogenate is removed and added to 0.5 ml 12 N HCl and the samples heated at 120° C. overnight. After the acid hydrolysis, 25-100 μl of the supernatant is dried down, resuspended in 25 μl water and the hydroxyproline content determined by the addition of 0.5 ml Chloramine T solution (140 mg Chloramine T in 6.5 ml ddH2O+1 ml n-propanol+2.5 ml 1M sodium acetate) and incubation at room temperature for 20 min. After the incubation, 0.5 ml Erlich's solution (1.48 g of 4-(dimethylamino(benzaldehyde) in 7 ml n-propanol+2.88 ml 60% perchloric acid and 0.12 ml ddH2O) is added and incubated at 65° C. for 15 min before reading the absorbance at 550 nm. The concentration of hydroxyproline in each […] is determined from a hydroxyproline (purchased from Sigma) standard curve.

Counter-ions that a name gives are not always drawn. A value given as a limit tells only on which side of the number the result lay.

human LOXL2, sequence (Q9Y4K0 26-774): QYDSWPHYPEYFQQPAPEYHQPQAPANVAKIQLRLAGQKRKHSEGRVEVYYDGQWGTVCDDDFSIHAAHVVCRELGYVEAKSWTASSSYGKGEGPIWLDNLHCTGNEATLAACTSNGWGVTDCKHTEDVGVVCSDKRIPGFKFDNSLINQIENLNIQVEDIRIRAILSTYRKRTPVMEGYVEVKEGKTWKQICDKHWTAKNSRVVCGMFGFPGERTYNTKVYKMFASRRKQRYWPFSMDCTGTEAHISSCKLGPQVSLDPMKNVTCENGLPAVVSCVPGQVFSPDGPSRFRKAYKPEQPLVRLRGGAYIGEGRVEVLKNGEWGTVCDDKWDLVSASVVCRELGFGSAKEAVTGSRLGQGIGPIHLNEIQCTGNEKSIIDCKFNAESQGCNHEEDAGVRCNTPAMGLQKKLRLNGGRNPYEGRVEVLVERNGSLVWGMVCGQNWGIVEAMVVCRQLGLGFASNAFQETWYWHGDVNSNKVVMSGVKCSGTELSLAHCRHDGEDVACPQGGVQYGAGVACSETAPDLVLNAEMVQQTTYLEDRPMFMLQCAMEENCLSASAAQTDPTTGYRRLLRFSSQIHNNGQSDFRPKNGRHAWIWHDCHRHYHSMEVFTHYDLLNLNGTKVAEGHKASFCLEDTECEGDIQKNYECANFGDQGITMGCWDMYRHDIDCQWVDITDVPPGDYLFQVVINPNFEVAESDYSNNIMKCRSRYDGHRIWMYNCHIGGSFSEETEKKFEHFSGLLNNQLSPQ

By IC50 is commonly meant the concentration that inhibits the measured activity by half. `Cl.NCc1cc(Oc2cccc(C(=O)Nc3ccccc3)c2)nc(C(F)(F)F)c1` [Compound 1-7, 3-((4-(Aminomethyl)-6-(trifluoromethyl)pyridin-2-yl)oxy)-N-phenylbenzamide hydrochloride]: the half-inhibitory concentration (IC50) at human LOXL2 was below 300 nM. Also, in test [1], the “efficacy in bleomycin lung fibrosis model, prophylactic dosing” value (“efficacy … prophylactic dosing” for short) is given as “efficacious”.
Consider `Cl.NCc1cc(Oc2cccc3c2CCC(=O)N3)nc(C(F)(F)F)c1` [Compound 1-59, 5-((4-(Aminomethyl)-6-(trifluoromethyl)pyridin-2-yl)oxy)-3,4-dihydroquinolin-2(1H)-one hydrochloride], for which the IC50 on human LOXL2 was below 300 nM. The “efficacy … prophylactic dosing” value in test [1] is recorded as “efficacious”.
With `Cl.NCc1cc(Oc2cccc(C(=O)N3C[C@H](O)[C@@H](F)C3)c2)nc(C(F)(F)F)c1` (stereo in doubt) [Compound 1-20, (S,S)-trans-(3-((4-(Aminomethyl)-6-(trifluoromethyl)pyridin-2-yl)oxy)phenyl)(3-fluoro-4-hydroxypyrrolidin-1-yl)methanone hydrochloride], on human LOXL2, the IC50 was below 300 nM. Also, in test [1], the “efficacy … prophylactic dosing” value is reported as “efficacious” and the “efficacy in bleomycin lung fibrosis model, therapeutic dosing” value is on record as “efficacious”.
For the molecule `CS(=O)(=O)CCNC(=O)c1cccc(Oc2cc(CN)cc(C(F)(F)F)n2)c1.Cl` [Compound 1-30, 3-((4-(Aminomethyl)-6-(trifluoromethyl)pyridin-2-yl)oxy)-N-(2-(methylsulfonyl)ethyl)benzamide hydrochloride], the IC50 at human LOXL2 is below 300 nM. The “efficacy … prophylactic dosing” value in test [1] is “efficacious”.
`NCc1cc(Oc2cncc(C(=O)N3CC[C@@H](N)C3)c2)nc(C(F)(F)F)c1` [Compound 1-54, (R)-(5-((4-(Aminomethyl)-6-(trifluoromethyl)pyridin-2-yl)oxy)pyridin-3-yl)(3-aminopyrrolidin-1-yl)methanone dihydrochloride]: the 50% inhibitory concentration (IC50) on human LOXL2 was below 300 nM.
As for `COCC1CN(C(=O)c2cccc(Oc3cc(CN)cc(C(F)(F)F)n3)c2)C1` [Compound 1-206, (3-((4-(Aminomethyl)-6-(trifluoromethyl)pyridin-2-yl)oxy)phenyl)(3-(methoxymethyl)azetidin-1-yl)methanone hydrochloride], the IC50 on human LOXL2 was below 300 nM.
With `NCc1cc(OC2CCN(C(=O)Nc3ccccc3)CC2)nc(C(F)(F)F)c1` [Compound 1-41, 4-((4-(Aminomethyl)-6-(trifluoromethyl)pyridin-2-yl)oxy)-N-phenylpiperidine-1-carboxamide trifluoroacetate], the IC50 on human LOXL2 was 300 to 1000 nM.
Turning to `NCc1cc(Oc2cccc(Nc3ccccc3)c2)nc(C(F)(F)F)c1` [Compound 1-5, 3-((4-(Aminomethyl)-6-(trifluoromethyl)pyridin-2-yl)oxy)-N-phenylaniline], the IC50 at human LOXL2 was below 300 nM.
On the same count and under the same terms, the figure for `NCc1cc(O[C@H]2CCCN(C(=O)Nc3ccccc3)C2)nc(C(F)(F)F)c1` [Compound 1-44, (S)-3-((4-(Aminomethyl)-6-(trifluoromethyl)pyridin-2-yl)oxy)-N-phenylpiperidine-1-carboxamide trifluoroacetate] is below 300 nM; for `NCc1cc(Oc2cccc(C(=O)NCCCCc3cn(-c4ccccc4)nn3)c2)nc(C(F)(F)F)c1` [Compound 1-217, 3-((4-(Aminomethyl)-6-(trifluoromethyl)pyridin-2-yl)oxy)-N-(4-(1-phenyl-1H-1,2,3-triazol-4-yl)butyl)benzamide hydrochloride] it is below 300 nM.
`Cl.NCc1cc(Oc2cccc(C(=O)N3C[C@@H](O)[C@H](F)C3)c2)nc(C(F)(F)F)c1` (stereo in doubt) [Compound 1-19, Racemic-trans-(3-((4-(aminomethyl)-6-(trifluoromethyl)pyridin-2-yl)oxy)phenyl)(3-fluoro-4-hydroxypyrrolidin-1-yl)methanone hydrochloride]: on human LOXL2, the half-inhibitory concentration (IC50) is below 300 nM. Further, in test [1], the “efficacy … prophylactic dosing” value was “efficacious” and the “efficacy in bleomycin lung fibrosis model, therapeutic dosing” value was “efficacious”.
As for `NCc1cc(Oc2cccc(C(=O)N3C[C@@H](F)[C@@H](O)C3)c2)nc(C(F)(F)F)c1` (single isomer, unassigned) [Compound 1-251, (R,S) or (S,R)-cis-(3-((4-(Aminomethyl)-6-(trifluoromethyl)pyridin-2-yl)oxy)phenyl)(3-fluoro-4-hydroxypyrrolidin-1-yl)methanone hydrochloride], at human LOXL2, the IC50 is below 300 nM.
With `Cc1nnc(C(=O)N2CCC[C@H](Oc3cc(CN)cc(C(F)(F)F)n3)C2)o1` [Compound 1-51, (S)-(3-((4-(Aminomethyl)-6-(trifluoromethyl)pyridin-2-yl)oxy)piperidin-1-yl)(5-methyl-1,3,4-oxadiazol-2-yl)methanone trifluoroacetate], the half-inhibitory concentration (IC50) at human LOXL2 fell in the range of 300 to 1000 nM.
Turning to `NCc1cc(Oc2cccc(Oc3ccccc3)c2)nc(C(F)(F)F)c1` [Compound 1-3, (2-(3-Phenoxyphenoxy)-6-(trifluoromethyl)pyridin-4-yl)methanamine trifluoroacetate], at human LOXL2, the half-maximal inhibitory concentration (IC50) was below 300 nM.
As for “N′-(4-(Aminomethyl)-6-(trifluoromethyl)pyridin-2-yl)-N^3-(2-(methylsulfonyl)ethyl)isophthalamide trifluoroacetate [Compound 1-242]”, the IC50 at human LOXL2 is below 300 nM.
Take `Cl.NCc1cc(Oc2cccc(C(=O)NCCn3cnnn3)c2)nc(C(F)(F)F)c1` [Compound 1-15, N-(2-(1H-Tetrazol-1-yl)ethyl)-3-((4-(aminomethyl)-6-(trifluoromethyl)pyridin-2-yl)oxy)benzamide hydrochloride]: the IC50 on human LOXL2 was below 300 nM. In addition, the “efficacy … prophylactic dosing” value in test [1] was “efficacious”.
Regarding `CC(C)C(=O)N1CCC[C@H](Oc2cc(CN)cc(C(F)(F)F)n2)C1` [Compound 1-52, (S)-1-(3-((4-(Aminomethyl)-6-(trifluoromethyl)pyridin-2-yl)oxy)piperidin-1-yl)-2-methylpropan-1-one trifluoroacetate], at human LOXL2, the half-inhibitory concentration (IC50) was below 300 nM.
Take `NCc1cc(NCc2cccc(C(=O)N3CC[C@H](O)C3)c2)nc(C(F)(F)F)c1` [Compound 1-237, (S)-(3-(((4-(Aminomethyl)-6-(trifluoromethyl)pyridin-2-yl)amino)methyl)phenyl)(3-hydroxypyrrolidin-1-yl)methanone hydrochloride]: the IC50 on human LOXL2 fell in the range of 300 to 1000 nM.
`NCc1cc(Oc2cccc(C(=O)NO)c2)nc(C(F)(F)F)c1` [Compound 1-218, 3-((4-(Aminomethyl)-6-(trifluoromethyl)pyridin-2-yl)oxy)-N-hydroxybenzamide hydrochloride]: the IC50 at human LOXL2 lay within 300 to 1000 nM.
The same measure, in the same setting: the figure for `NCc1cc(Oc2cccc(C(=O)N3CC[C@@H](F)C3)c2)nc(C(F)(F)F)c1` [Compound 1-212, (R)-(3-((4-(Aminomethyl)-6-(trifluoromethyl)pyridin-2-yl)oxy)phenyl)(3-fluoropyrrolidin-1-yl)methanone hydrochloride] is below 300 nM.
The same measure, in the same setting: under `NCc1cc(O[C@H]2CCCN(C(=O)c3cncnc3)C2)nc(C(F)(F)F)c1` [Compound 1-50, (S)-(3-((4-(Aminomethyl)-6-(trifluoromethyl)pyridin-2-yl)oxy)piperidin-1-yl)(pyrimidin-5-yl)methanone trifluoroacetate] stands below 300 nM.
